The target of one experiment is T1, CDK9 (Homo sapiens, UniProt P50750).
T1 construct: Nanosyn (contract assay)
Kind of experiment: Kinase enzymatic assay (Nanosyn, microfluidic), IC50 curves against CDKs. It counts as biochemical. The protocol:
HDAC inhibitory activity assays were performed using FLUOR DE LYS® HDAC fluorometric activity assay kit from Enzo following the manufacturer's instructions. GloMax®-Multi Detection System (Promega) was used to read the fluorescence signals. Histone methyltransferase and demethylase enzymatic assays were performed by BPS Bioscience at 10 μM in duplicates. Kinase enzymatic assays were performed by Nanosyn using microfluidic technology. 250 kinome screening was done in duplicates using MC180295 at 1 μM. IC50 curves against 10 CDKs were created for MC180295. The human kinome tree was annotated using the online Kinome Render software (Chartier, M., Chénard, T., Barker, J., and Najmanovich, R. (2013). PeerJ 1, e126). Isotope kinase assay was performed using previously described methods (Garriga, J., Peng, J., Parreño, M., Price, D. H., Henderson, E. E., and Graña, X. (1998). Oncogene 17, 3093-3102) using recombinant active full-length CDK9/CyclinT1 (Millipore, 14-685) and SMARCA4 (Abcam, ab82237) in the presence or absence of CDK9 inhibitors.

A further experiment deals with YB5 cells. Kind of experiment: GFP reactivation in YB5 cells (flow cytometry). In kind it is cell-based, human. From the text:
To screen the compounds of the invention for epigenetic anti-cancer activity the YB5 cell-based system, which is derived from the human colon cancer cell line SW48, was used (Si et al., 2010, Cancer Res. 70:6968-6977; Raynal et al., 2012, Cancer Res. 72:1170-1181). YB5 cells contain a single insertion of cytomegalovirus (CMV) promoter driving green fluorescent protein (GFP) gene. GFP expression is silenced in >99.9% of YB5 cells by epigenetic mechanisms. In YB5 cells, the inserted GFP gene behaves similarly to endogenous tumor suppressor genes (TSGs) silenced by epigenetic mechanisms, and it can be reactivated by epigenetic anti-cancer agents such as DNA methylation inhibitors and/or HDAC inhibitors such as depsipeptide (Si et al., 2010, Cancer Res. 70:6968-6977; Raynal et al., 2012, Cancer Research, 72:1170-1181; Wu et al., 2008, Mol. Cell Biol, 28:3219-3235). Thus, reactivation of GFP expression and the resulting fluorescence is a measure of epigenetic anti-cancer activity.
The following procedure may be used to identify compounds of useful in the invention. YB5 cells cultured in L-15 medium supplemented with 10% fetal bovine serum and 1% P/S are treated for 24 hours with varying concentrations (50 nM, 100 nM, 500 nM, 1 μM, 5 μM, 10 μM, 25 μM, and 50 μM) of test compounds. After treatment, cells are trypsinized and re-suspended in cell culture media with propidium iodide (PI) to stain dead cells. Reactivation of GFP is measured using flow cytometry to identify the GFP positive population. The relative activities are expressed as the percent of the response compared to treatment with 20 nM HDACi depsipeptide for 24 hours. YB5 cells are grown in 1% CO2 atmosphere at 37° C.
NDL-3040 compound library consists of 3040 chemically diverse compounds that are semi-natural, derived from natural compounds, or synthetic compounds that are natural-compound-like. The small molecules were arrayed in 96-well plates as 10 mM stocks in 100% DMSO and were purchased from TimTec Inc. An aminothiazole analog library (93 small molecules) was also purchased from the same vendor and was in a 96-well plate format as 10 mM stocks in 100% DMSO. The 3040 compounds were screened at 25 μM for 24 hr. All plates were kept at −80° C. before use. YB5 cells growing in log phase (70-80% confluency) in 96-well plates were used. Each experimental 96-well plate contained 80 different compounds. Compounds were dispensed using an INTEGRA VIAFLO96 96-well pipette. After a 24 hr drug treatment, cells were trypsinized for 10 mins and re-suspended in L-15 medium containing propidium iodide (PI) to stain for dead cells. A total of 10000 cells per well were analyzed using Millipore Guava flow cytometer (EMD, Millipore). GFP positive percentage was calculated by excluding all the PI positive cells. After finishing the screening, the average Z-factor
For drug screening and dose response validations, GFP positive cells were detected by Millipore Guava flow cytometer (EMD, Millipore). Cell cycle analysis was performed using BD FACSCalibur™ by propidium iodide staining four days after drug treatment. Sub-G1 population percentage was also included to measure apoptotic cell proportion. Data were analyzed using FlowJo software version 10.2. For the cell differentiation analysis, cells were washed and stained with propidium iodide (PI), CD11 b (BD Biosciences, #562793) and the isotype control IgG (BD Biosciences, #555748). Flow cytometry analysis was performed on a Millipore Guava flow cytometer (EMD, Millipore). For the ID8 in vivo experiments, ascites was drained from 5-10 mice per group and incubated in ACK buffer (Thermo Fisher) to lyse red blood cells for 10 minutes, then washed. Ascites from each mouse was individually lysed and prepared for flow cytometry. Mononuclear cells collected were cultured for 4 hours in RPMI with 5% Fetal Bovine Serum and in the presence of Cell Stimulation Cocktail (plus protein transport inhibitors; eBioscience). […]
A general note: Flow cytometry measures light scatter and fluorescence of single cells or particles in a stream.

Experiment [1] deals with cancer cell lines and normal IMR90 cells. Kind of experiment: Anti-proliferation assay (trypan blue exclusion). It counts as cell-based, human. As to conditions: four days after one-time exposure. As to the method: Cells were seeded in 96-well plates at 40% confluency in triplicates. Fresh medium was changed the next day and drugs were added directly. After mixing thoroughly, plates were cultured in a 37° C. incubator for two more days. Drug-free fresh medium was changed the fourth day. The cells were collected on day 5 by trypsin, suspended in medium, mixed with trypan blue (1:1 ratio), and counted using LUNA II automated cell counter. Each sample was counted at least three times and the average numbers were used for the analysis. Each treatment condition was performed at least in triplicates.

T1 sequence (P50750 whole entry): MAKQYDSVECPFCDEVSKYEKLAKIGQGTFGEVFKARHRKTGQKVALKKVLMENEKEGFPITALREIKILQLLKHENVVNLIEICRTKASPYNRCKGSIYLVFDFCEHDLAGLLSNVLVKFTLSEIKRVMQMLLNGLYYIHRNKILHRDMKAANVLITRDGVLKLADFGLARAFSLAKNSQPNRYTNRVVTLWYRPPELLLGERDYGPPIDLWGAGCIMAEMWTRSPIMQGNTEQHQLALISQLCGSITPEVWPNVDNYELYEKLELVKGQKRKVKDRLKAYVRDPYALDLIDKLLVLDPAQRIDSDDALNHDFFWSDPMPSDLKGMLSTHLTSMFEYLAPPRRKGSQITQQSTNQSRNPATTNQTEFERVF
T1 sequence (O60563 whole entry partner): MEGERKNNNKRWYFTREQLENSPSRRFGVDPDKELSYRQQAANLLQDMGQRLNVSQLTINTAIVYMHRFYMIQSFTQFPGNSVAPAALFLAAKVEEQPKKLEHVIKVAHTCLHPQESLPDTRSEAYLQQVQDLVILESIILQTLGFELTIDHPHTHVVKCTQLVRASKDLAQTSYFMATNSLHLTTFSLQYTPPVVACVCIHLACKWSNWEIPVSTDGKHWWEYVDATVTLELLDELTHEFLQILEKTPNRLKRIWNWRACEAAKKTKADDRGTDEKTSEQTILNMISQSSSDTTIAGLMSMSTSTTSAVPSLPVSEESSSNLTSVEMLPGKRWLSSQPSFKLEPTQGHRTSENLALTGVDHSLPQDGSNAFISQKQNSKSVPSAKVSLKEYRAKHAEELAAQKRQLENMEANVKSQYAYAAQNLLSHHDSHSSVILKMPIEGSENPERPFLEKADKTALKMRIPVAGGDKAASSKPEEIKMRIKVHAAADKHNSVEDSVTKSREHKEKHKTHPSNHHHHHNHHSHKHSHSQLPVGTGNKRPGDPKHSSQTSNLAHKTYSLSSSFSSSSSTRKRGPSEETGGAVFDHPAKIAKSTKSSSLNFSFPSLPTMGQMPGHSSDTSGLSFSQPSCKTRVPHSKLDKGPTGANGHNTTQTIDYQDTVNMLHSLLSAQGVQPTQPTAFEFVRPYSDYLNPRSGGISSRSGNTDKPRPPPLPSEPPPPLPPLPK

On to `Nc1nc(N[C@H]2CC3CCC2C3)sc1C(=O)c1ccccc1[N+](=O)[O-]` (stereo partly shown) [MC180295], for which half-maximal inhibition against CDK9 (IC50) was put at 5 nM. Moreover, the “selectivity for CDK9 over other CDKs” value on CDK9 (10 different CDKs) was “at least 22 fold”. In the experiment on YB5 cells (500 nM), the “relative activity to Depsipeptide @ 500 nM %” value is listed as 14.10%. The “relative activity to Depsipeptide @ 50 μM %” value with YB5 cells (50 μM) came to 23.32%. Also, in the experiment on YB5 cells (Homo sapiens, 24 h, read-out: relative activity to Depsipeptide @ 1 μM %), the Emax at 1 µM worked out at 28.8%. In addition, the Emax at 5 µM with YB5 cells (Homo sapiens, 24 h, read-out: relative activity to Depsipeptide @ 5 μM %) came out at 65.4%. Also, in the experiment with YB5 cells (Homo sapiens, 24 h, read-out: relative activity to Depsipeptide @ 10 μM %), the Emax at 10 µM was 72.8%. Moreover, the Emax at 25 µM in the experiment with YB5 cells (Homo sapiens, 24 h, read-out: relative activity to Depsipeptide @ 25 μM %) was determined as 73.3%. Also, the “GFP+ cells” value in the experiment with YB5 cells (at 500 nM) is on record as around 60%. For the same compound, the “reduction of proliferation, cancer cells vs normal cells (IMR90)” value in experiment [1] is “more effective in reducing proliferation of cancer cells than normal control cells”.

The values above are taken from US10941126B2, “Bridged bicycloalkyl-substituted aminothiazoles and their methods of use” (Temple University—Of The Commonwealth System of Higher …, priority 2017, dated 2021).
